Columns and labels:
CYP2D6 = target: T1, CYP2D6 (Homo sapiens, UniProt P10635); experiment: CYP inhibition assay in human liver microsome; assay type: in vitro ADME; details: human liver microsomes, probe dextromethorphan, 10µM test compound, dextromethorphan substrate, <0: not or weak inhibitor, read-out: CYP 2D6 inhibition %@10µM
T1 construct: tissue BD-Gentest 452117; host or cells: human liver microsomes
Summary of the method: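 HLM mixed with CYP2D6 substrate, preincubated 10 min at 37 °C, started with NADPH regenerating system and run 10 min at 37 °C before acetonitrile quench. Metabolite measured by RapidFire MS/MS against D3-dextrorphan internal standard. % inhibition scaled between DMSO and concentrated-inhibitor controls.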

hTLR7 = target: T2, hTLR7 (Homo sapiens, UniProt Q9NYK1); experiment: HEK293-Blue-hTLR-7 cells assay (SEAP reporter, R848 stimulation); assay type: cell-based; set-up: host or cells: HEK293 (HEK-Blue); details: HEK293-Blue-hTLR7 cells, R848, 20 hrs; read-out: HEK/hTLR7 IC50
T2 sequence (Q9NYK1 27-1049): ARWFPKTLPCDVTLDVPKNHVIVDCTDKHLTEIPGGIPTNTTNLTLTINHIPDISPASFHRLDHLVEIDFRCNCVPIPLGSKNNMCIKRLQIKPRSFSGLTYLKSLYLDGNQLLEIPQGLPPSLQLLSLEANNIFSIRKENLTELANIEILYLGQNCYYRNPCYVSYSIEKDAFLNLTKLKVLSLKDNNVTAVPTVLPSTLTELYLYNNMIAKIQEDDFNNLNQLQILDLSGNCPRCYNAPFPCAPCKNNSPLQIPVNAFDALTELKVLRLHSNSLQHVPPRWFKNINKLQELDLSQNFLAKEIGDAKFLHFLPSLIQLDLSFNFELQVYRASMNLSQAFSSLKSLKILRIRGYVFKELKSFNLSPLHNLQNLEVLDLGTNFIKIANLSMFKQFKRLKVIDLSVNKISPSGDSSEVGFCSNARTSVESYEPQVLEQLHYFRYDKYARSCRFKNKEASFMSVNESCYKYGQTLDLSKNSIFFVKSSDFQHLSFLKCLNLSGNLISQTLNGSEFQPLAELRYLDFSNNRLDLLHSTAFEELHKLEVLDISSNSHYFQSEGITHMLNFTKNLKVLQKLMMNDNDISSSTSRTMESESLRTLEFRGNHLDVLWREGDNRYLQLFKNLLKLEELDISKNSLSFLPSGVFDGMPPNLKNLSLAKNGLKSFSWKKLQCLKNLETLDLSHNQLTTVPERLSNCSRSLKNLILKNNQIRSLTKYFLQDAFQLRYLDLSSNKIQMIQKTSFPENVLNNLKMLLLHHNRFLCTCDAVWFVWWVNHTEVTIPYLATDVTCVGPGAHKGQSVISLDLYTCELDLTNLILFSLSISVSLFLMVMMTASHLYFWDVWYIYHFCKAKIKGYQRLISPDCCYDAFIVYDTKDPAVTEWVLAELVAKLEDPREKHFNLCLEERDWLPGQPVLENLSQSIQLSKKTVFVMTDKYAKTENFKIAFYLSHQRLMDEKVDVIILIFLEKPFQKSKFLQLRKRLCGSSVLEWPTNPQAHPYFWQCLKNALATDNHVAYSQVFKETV
Summary of the method: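 HEK293-Blue cells stably expressing human TLR7 with an NF-κB/AP-1-driven SEAP reporter were treated with serially diluted compound (1% DMSO final) plus R848 for 20 h at 37 °C. Supernatant SEAP activity was measured with QUANTI-Blue substrate after 2 h at 37 °C, with absorbance read at 620-655 nm.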

T1 sequence (P10635 whole entry): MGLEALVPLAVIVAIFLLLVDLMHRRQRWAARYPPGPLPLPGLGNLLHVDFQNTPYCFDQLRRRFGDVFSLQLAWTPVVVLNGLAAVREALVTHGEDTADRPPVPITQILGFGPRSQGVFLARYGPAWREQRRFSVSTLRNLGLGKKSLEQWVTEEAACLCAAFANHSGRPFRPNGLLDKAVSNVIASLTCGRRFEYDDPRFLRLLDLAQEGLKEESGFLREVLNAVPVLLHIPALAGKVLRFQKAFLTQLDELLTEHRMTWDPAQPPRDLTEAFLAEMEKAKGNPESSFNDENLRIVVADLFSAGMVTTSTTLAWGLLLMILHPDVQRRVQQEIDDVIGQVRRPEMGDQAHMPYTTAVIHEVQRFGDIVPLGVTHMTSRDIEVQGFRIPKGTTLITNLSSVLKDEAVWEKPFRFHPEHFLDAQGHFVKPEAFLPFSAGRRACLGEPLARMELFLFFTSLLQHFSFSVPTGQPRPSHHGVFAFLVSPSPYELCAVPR

| Structure (SMILES) | inhibition at 10 min, 10 µM (CYP2D6) | IC50 (hTLR7) |
| --- | --- | --- |
| C[C@@H]1CN(c2ccc(C#N)c3ncccc23)C[C@H](CN2CCN(c3cnc4c(c3)CNCC4)CC2)O1 [Example 21, 5-[(2R,6S)-2-methyl-6-[[4-(5,6,7,8-tetrahydro-1,6-naphthyridin-3-yl)piperazin-1-yl]methyl]morpholin-4-yl]quinoline-8-carbonitrile] | -4.5% | 11 nM |
| C[C@@H]1CN(c2ccc(C#N)c3ncccc23)C[C@H](CN2CCC(Nc3ncc4c(n3)CNC4)C2)O1 (stereo partly drawn) [Example 32, 5-[(2S,6R)-2-[[3-(6,7-dihydro-5H-pyrrolo[3,4-d]pyrimidin-2-ylamino)pyrrolidin-1-yl]methyl]-6-methyl-morpholin-4-yl]quinoline-8-carbonitrile] | 17.5% | 69 nM |
| C[C@@H]1CN(c2ccc(C#N)c3ncsc23)C[C@H](CN2CCN(c3cnc4c(c3)CNC4)CC2)O1 [Example 8, 7-[(2S,6R)-2-[[4-(6,7-dihydro-5H-pyrrolo[3,4-b]pyridin-3-yl)piperazin-1-yl]methyl]-6-methyl-morpholin-4-yl]-1,3-benzothiazole-4-carbonitrile] | 13% | 10 nM |
| C[C@@H]1CN(c2ccc(C#N)c3ncccc23)C[C@H](CN2CC3(C2)CN(c2cc4c(cn2)CCNC4)CCO3)O1 [Example 48, 5-[(2R,6S)-2-methyl-6-[[8-(5,6,7,8-tetrahydro-2,6-naphthyridin-3-yl)-5-oxa-2,8-diazaspiro[3.5]nonan-2-yl]methyl]morpholin-4-yl]quinoline-8-carbonitrile] | -12% | 5 nM |
| C[C@@H]1CN(c2ccc(C#N)c3ncccc23)C[C@H](CN2CC3(CCN3c3ccc4c(n3)CCNC4)C2)O1 [Example 36, 5-[(2R,6S)-2-methyl-6-[[1-(5,6,7,8-tetrahydro-1,6-naphthyridin-2-yl)-1,6-diazaspiro[3.3]heptan-6-yl]methyl]morpholin-4-yl]quinoline-8-carbonitrile] | 13.5% | 26 nM |
| C[C@@H]1CN(c2ccc(C#N)c3ncccc23)C[C@H](CN2CCN(c3ccc4c(c3)CN(CCO)C4)CC2)O1 [Example 16, 5-[(2S,6R)-2-[[4-[2-(2-hydroxyethyl)isoindolin-5-yl]piperazin-1-yl]methyl]-6-methyl-morpholin-4-yl]quinoline-8-carbonitrile] | 2.5% | 20 nM |
| C[C@@H]1CN(c2ccc(C#N)c3nccnc23)C[C@H](CN2CCN(c3cc4c(cn3)C[C@H](C)NC4)CC2)O1 (single isomer, unassigned) [Example 81] | 3.5% | 5 nM |
| C[C@@H]1CN(c2ccc(C#N)c3ncccc23)C[C@H](CN2CCN(c3ccc4c(c3)CNC4)CC2)O1 [Example 7, 5-[(2S,6R)-2-[(4-isoindolin-5-ylpiperazin-1-yl)methyl]-6-methyl-morpholin-4-yl] quinoline-8-carbonitrile] | 15% | 39 nM |
| C[C@@H]1CN(c2ccc(C#N)c3nccnc23)C[C@H](CN2CCN(c3ccc4c(n3)CN[C@H]4C)CC2)O1 (single isomer, unassigned) [Example 78] | 0.5% | 5 nM |

More lines, in order of falling IC50 (hTLR7), values ahead:

| inhibition at 10 min, 10 µM (CYP2D6) | IC50 (hTLR7) | Structure (SMILES) |
| --- | --- | --- |
| -9.5% | 32 nM | C[C@@H]1CN(c2ccc(C#N)c3ncccc23)C[C@H](CN2CCN(c3ccc4c(c3)CCNC4CO)CC2)O1 (stereo partly drawn) [Example 24, 5-[(2S,6R)-2-[[4-[1-(hydroxymethyl)-1,2,3,4-tetrahydroisoquinolin-6-yl]piperazin-1-yl]methyl]-6-methyl-morpholin-4-yl]quinoline-8-carbonitrile] |
| -2% | 28 nM | CC1NCc2ncc(N3CCN(C[C@H]4CN(c5ccc(C#N)c6ncccc56)C[C@@H](C)O4)CC3)cc21 (stereo partly drawn) [Example 41, 5-[(2R,6S)-2-methyl-6-[[4-(5-methyl-6,7-dihydro-5H-pyrrolo[3,4-b]pyridin-3-yl)piperazin-1-yl]methyl]morpholin-4-yl]quinoline-8-carbonitrile] |
| 4% | 18 nM | C[C@@H]1CN(c2ccc(C#N)c3ncccc23)C[C@H](CN2CCN(c3ccc4c(n3)CCN(C)C4)CC2)O1 [Example 34, 5-[(2R,6S)-2-methyl-6-[[4-(6-methyl-7,8-dihydro-5H-1,6-naphthyridin-2-yl)piperazin-1-yl]methyl]morpholin-4-yl]quinoline-8-carbonitrile] |
| -10.5% | 17 nM | C[C@@H]1CN(c2ccc(C#N)c3ncccc23)C[C@H](CN2CCCN(c3nc4c(s3)CNCC4)CC2)O1 [Example 33, 5-[(2R,6S)-2-methyl-6-[[4-(4,5,6,7-tetrahydrothiazolo[5,4-c]pyridin-2-yl)-1,4-diazepan-1-yl]methyl]morpholin-4-yl]quinoline-8-carbonitrile] |
| 13% | 16 nM | COC1CNCc2ccc(N3CCN(C[C@H]4CN(c5ccc(C#N)c6ncccc56)C[C@@H](C)O4)CC3)cc21 (stereo partly drawn) [Example 58, 5-[(2S,6R)-2-[[4-(4-methoxy-1,2,3,4-tetrahydroisoquinolin-6-yl)piperazin-1-yl]methyl]-6-methyl-morpholin-4-yl]quinoline-8-carbonitrile] |
| 6% | 14 nM | C[C@@H]1CN(c2ccc(C#N)c3ncccc23)C[C@H](CN2CCN(c3cc4c(cn3)C[C@H](C)NC4)CC2)O1 (single isomer, unassigned) [Example 76] |
| 12% | 12 nM | C[C@@H]1CN(c2ccc(C#N)c3ncccc23)C[C@H](CN2CC3(C2)CN(c2cnc4c(c2)CCNC4)CCO3)O1 [Example 46, 5-[(2R,6S)-2-methyl-6-[[8-(5,6,7,8-tetrahydro-1,7-naphthyridin-3-yl)-5-oxa-2,8-diazaspiro[3.5]nonan-2-yl]methyl]morpholin-4-yl]quinoline-8-carbonitrile] |
| 17.5% | 12 nM | C[C@@H]1CN(c2ccc(C#N)c3ncccc23)C[C@H](CN2CCN(c3ccc4c(n3)CNC4)CC2)O1 [Example 30, 5-[(2S,6R)-2-[[4-(6,7-dihydro-5H-pyrrolo[3,4-b]pyridin-2-yl)piperazin-1-yl]methyl]-6-methyl-morpholin-4-yl] quinoline-8-carbonitrile] |
| 4% | 11 nM | C[C@@H]1CN(c2ccc(C#N)c3ncccc23)C[C@H](CN2CC3(C2)CN(c2ccc4c(c2)CCNC4)CCO3)O1 [Example 44, 5-[(2R,6S)-2-methyl-6-[[8-(1,2,3,4-tetrahydroisoquinolin-6-yl)-5-oxa-2,8-diazaspiro[3.5]nonan-2-yl]methyl]morpholin-4-yl]quinoline-8-carbonitrile] |
| 8.5% | 8 nM | C[C@@H]1CN(c2ccc(C#N)c3ncccc23)C[C@H](CN2CCCN(c3ncc4c(n3)CCNC4)CC2)O1 [Example 39, 5-[(2R,6S)-2-methyl-6-[[4-(5,6,7,8-tetrahydropyrido[4,3-d]pyrimidin-2-yl)-1,4-diazepan-1-yl]methyl]morpholin-4-yl]quinoline-8-carbonitrile] |
| 5.5% | 8 nM | C[C@@H]1CN(c2ccc(C#N)c3nccnc23)C[C@H](CN2CCN(c3ccc4c(n3)CN[C@@H]4C)CC2)O1 (single isomer, unassigned) [Example 79] |
| -1.5% | 7 nM | C[C@@H]1CN(c2ccc(C#N)c3nccnc23)C[C@H](CN2CCN(c3cc4c(cn3)CN[C@@H](C)C4)CC2)O1 (single isomer, unassigned) [Example 84] |
| 10.5% | 4 nM | C[C@@H]1CN(c2ccc(C#N)c3ncccc23)C[C@H](CN2C[C@H]3CN(c4ccc5c(n4)CCNC5)CC[C@H]32)O1 (single isomer, unassigned) [Example 55] |

From patent EP3807270B1, “NOVEL HETEROARYL HETEROCYCLYL COMPOUNDS FOR THE TREATMENT OF AUTOIMMUNE DISEASE” (F. Hoffmann-La Roche AG, priority 2018, dated 2019)
